The values below come from patent US10273226B2, “Pyrazolyl-heteroarylamides as pesticides” (Bayer Animal Health GmbH, priority 2014, dated 2019).

Holding throughout (format): in vivo
For assay [1], the system named is Aedes aegypti strain MONHEIM. Description: Aedes test (AEDSAE surface treatment). Particulars: 24 hours after contact, read-out: efficacy (mortality in %). The procedure: Aedes Test (AEDSAE Surface Treatment)
Solvent: acetone+2000 ppm rapeseed oil methyl ester (RME)
To produce an appropriate active ingredient formulation, the active ingredient is dissolved in the solvent (2 mg/ml). The active ingredient formulation is pipetted onto a glazed tile and, after it has dried off, adult mosquitoes of the species Aedes aegypti strain MONHEIM are placed onto the treated tile. The exposure time is 30 minutes.
24 hours after contact with the treated surface, mortality in % is determined. 100% means that all the mosquitoes have been killed; 0% means that none of the mosquitoes have been killed.

The next assay concerns Ctenocephalides felis. The assay is described as follows: Ctenocephalides felis oral test. Particulars: application rate 100 ppm in citrated cattle blood; after 2 days. The essentials:
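Steps: active ingredient dissolved in dimethyl sulphoxide; blood dilution prepared; fleas (about 20, unfed adults) held in gauze-closed chamber beneath a cylinder of treated blood; feeding via parafilm; kill percentage determined after 2 days.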

Another assay relates to Myzus persicae. The assay is described as follows: Myzus persicae spray test. The note with it: application rate 100 g/ha; after 6 days. In outline: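 Efficacy, as % of aphids killed (0-100%), was scored 6 days after spraying. Test solutions were made in solvent diluted with water containing 1000 ppm emulsifier. They were sprayed onto Brassica pekinensis leaf discs carrying mixed-stage Myzus persicae.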

The next assay has as its system Tetranychus urticae. Description: Tetranychus urticae spray test, OP-resistant. Particulars: application rate 100 g/ha; after 6 days. The essentials: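 Percent kill is assessed 6 days after spraying infested Phaseolus vulgaris leaf discs, with all mite stages present. Compound is applied as a solvent/emulsifier aqueous formulation at the desired concentration.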

Regarding `Cn1nc(C(F)(F)C(F)(F)F)c(C(F)(F)F)c1-n1cc(-c2cccc(NC(=O)c3ccncc3)c2)cn1` [Example 1-001, N-{3-[2′-Methyl-5′-(pentafluoroethyl)-4′-(trifluoromethyl)-2′H-1,3′-bipyrazol-4-yl]-phenyl}isonicotinamide], the mortality (commonly the percentage killed) at 20 mg/m2 in assay [1] (application rate 20 mg/m^2, exposure 30 minutes) is 90 to 100%. The mortality at 100 mg/m2 in assay [1] (application rate 100 mg/m^2, exposure 30 minutes) was 90 to 100%. Besides, the “efficacy (kill in %)” value in the assay on Ctenocephalides felis was found to be 100%. The efficacy in the assay on Myzus persicae and in the assay on Tetranychus urticae was 100% in each case.
